In patent publication US20230109833A1, “METABOLICALLY STABLE N-ACYLAMINOOXADIAZOLES USEFUL AS ANTIBACTERIAL AGENTS” (MICROBIOTIX, INC., priority 2017, published 2023):
Converted amounts (≈) assume the structure as drawn. “Also recorded” adds a separate entry of the source. Where two headings read alike, the source gives them in different places.

Legend:
N. gonorrhoeae = experiment: MIC (Table 2B); type: cell-based; conditions: Neisseria gonorrhoeae, read-out: N. gonorrhoeae MIC
S. aureus = experiment: MIC (Table 2B); type: cell-based; conditions: Staphylococcus aureus, strain not given
36 mammalian receptors = type: binding; conditions: 10 μM; every receptor of the panel
[1] = Single dose PK (IV and PO); type: in vivo; conditions: mice, 10 mg/kg IV or IP, within 6 h, serum; 10 mg/kg

Row | SMILES | MIC (N. gonorrhoeae; Table 2B, strain not given) [µg/mL] | MIC (S. aureus) [µg/mL] | further results
1 | O=C(Nc1nnc(-c2ccc(F)cc2)o1)c1ccc(Oc2cccc(O)c2)cc1 [compound 4304] | 0.39 (≈ 0.997 µM) | 3.07 (≈ 7.84 µM) | –
2 | Cc1ccccc1Oc1ccc(C(=O)Nc2nnc(-c3ccc(F)cc3)o2)cc1 [compound 4307] | 0.09 (≈ 0.231 µM) | 0.61 (≈ 1.57 µM) | –
3 | O=C(Nc1nnc(C2CCCCC2)o1)c1ccc(Oc2ccccc2)nc1 [compound 4780] | 0.36 (≈ 0.988 µM) | 3.61 (≈ 9.91 µM) | –
4 | CN(C(=O)c1ccc(Cl)cc1)c1nnc(-c2ccc(F)cc2)o1 [compound 4076] | 2.07 (≈ 6.24 µM) | 8.27 (≈ 24.9 µM) | –
5 | O=C(Nc1nnc(-c2cccc(F)c2O)o1)c1ccc(Oc2cccc(O)c2)cc1 [compound 6976] | 1.91 (≈ 4.69 µM) | 2.5 (≈ 6.14 µM) | –
6 | O=C(Nc1nnc(C2COc3ccccc3O2)o1)c1ccc(Oc2ccccc2)nc1 (stereo not shown) [compound 4770] | 3.33 (≈ 8 µM) | 7.36 (≈ 17.7 µM) | –
7 | O=C(Nc1nnc(Cc2ccc(F)cc2)o1)c1ccc(Oc2ccccc2)nc1 [compound 4802] | 1.56 (≈ 4 µM) | – | –
8 | COc1cccc(Oc2ccc(C(=O)Nc3nnc(-c4ccc(F)cc4)o3)cc2)c1 [compound 4309] | 0.1 (≈ 0.247 µM) | 0.63 (≈ 1.55 µM) | –
9 | Cc1cc(C)cc(Oc2ccc(C(=O)Nc3nnc(-c4ccc(F)cc4)o3)cc2)c1 [compound 4308] | 0.079 (≈ 0.196 µM) | 0.314 (≈ 0.778 µM) | –
10 | N#Cc1nnc(NC(=O)c2ccc(Oc3ccccc3)nc2)o1 [compound 5834] | 20.3 (≈ 66.1 µM) | – | –
11 | O=C(Nc1nnc(C2CCCCC2)o1)c1ccc(Oc2cccc(O)c2)cc1 [compound 4801] | 0.19 (≈ 0.501 µM) | 2.98 (≈ 7.85 µM) | –
12 | CC(Oc1ccc(C(=O)Nc2nnc(-c3ccc(F)cc3)o2)cc1)c1ccccc1 (stereo not shown) [compound 4357] | 0.2 (≈ 0.496 µM) | – | –
13 | Cc1cccc(Oc2ccc(C(=O)Nc3nnc(-c4ccc(F)cc4)o3)cc2)c1 [compound 4306] | 0.048 (≈ 0.123 µM) | 0.03 (≈ 0.077 µM) | –
14 | O=C(Nc1nnc(-c2ccc(F)cc2)o1)c1ccc(N2CCC2)cc1 [compound 5910] | 4.23 (≈ 12.5 µM) | 18.9 (≈ 55.9 µM) | –
15 | CCC(c1ccccc1)c1nnc(NC(=O)c2ccc(Oc3ccccc3)nc2)o1 (stereo not shown) [compound 4804] | 0.63 (≈ 1.57 µM) | – | –
16 | Cc1ccc(Oc2ccc(C(=O)Nc3nnc(-c4ccc(F)cc4)o3)cc2)cc1 [compound 4305] | 0.048 (≈ 0.123 µM) | 0.03 (≈ 0.077 µM) | –
17 | O=C(Nc1nnc(-c2cc(F)ccc2O)o1)c1ccc(Oc2cccc(O)c2)cc1 [compound 6977] | 0.21 (≈ 0.516 µM) | 0.6 (≈ 1.47 µM) | –
18 | O=C(Nc1nnc(-c2ccc(F)cc2)o1)c1ccc(OC2CCCC2)cc1 [compound 4293] | – | 0.28 (≈ 0.762 µM) | –
19 | COc1c(F)cccc1-c1nnc(NC(=O)c2ccc(Oc3cncc(C)n3)cc2)o1 [compound 6983] | 9.7 (≈ 23 µM) | 21.1 (≈ 50.1 µM) | –

Row | SMILES | MIC (N. gonorrhoeae; Table 2B, strain not given) [µg/mL] | MIC (S. aureus) [µg/mL] | further results
20 | O=C(Nc1nnc(C2(O)CCCCC2)o1)c1ccc(Oc2ccccc2)nc1 [compound 5793] | 38 (≈ 99.9 µM) | – | –
21 | O=C(Nc1nnc(-c2ccccc2O)o1)c1ccc(Oc2ccccc2)nc1 [5939A] | 0.82 (≈ 2.19 µM) | 1.4 (≈ 3.74 µM) | –
22 | O=C(Nc1nnc(-c2ccc(F)cc2)o1)c1ccc(Oc2ccccc2)nc1 [compound 4237, 2-(6-phenoxynicotinamido)-5-(4-fluorophenyl)-1,3,4-oxadiazole] | – | – | inhibition of the 36 mammalian receptors (36 mammalian receptors): < 50%
23 | Cc1cncc(Oc2ccc(C(=O)Nc3nnc(C4CC5CCC4C5)o3)cc2)n1 (stereo not shown) [compound 6282] | 1.37 (≈ 3.5 µM) | 6.9 (≈ 17.6 µM) | –
24 | O=C(Nc1nnc(-c2ccc(F)cc2)o1)c1ccc(Cl)s1 [compound 3653] | 0.32 (≈ 0.988 µM) | – | –
25 | O=C(Nc1nnc(-c2ccc(F)cc2)o1)c1ccc2c(c1)ncn2-c1ccccc1 [compound 4311] | 2.49 (≈ 6.23 µM) | – | –
26 | O=C(Nc1nnc(C2CCCC2)o1)c1ccc(Oc2ccccc2)nc1 [compound 4470] | 0.35 (≈ 0.999 µM) | 4.37 (≈ 12.5 µM) | –
27 | O=C(Nc1nnc(-c2ccc(F)cc2)o1)c1ccc(S(=O)(=O)c2ccccc2)cc1 [compound 4257] | – | 2.64 (≈ 6.23 µM) | –
28 | O=C(Nc1nnc(C2CC3CCC2C3)o1)c1ccc(OC2CCN(CC(F)(F)F)CC2)cc1 (stereo not shown) [compound 6211] | 1.29 (≈ 2.78 µM) | 5.8 (≈ 12.5 µM) | –
29 | O=C(Nc1nnc(C2CC3CCC2C3)o1)c1ccc(Oc2ccccc2)nc1 (stereo not shown) [compound 5246] | 0.16 (≈ 0.425 µM) | 4.71 (≈ 12.5 µM) | –
30 | Cc1ccc(C(=O)Nc2nnc(-c3ccc(N4CCC4)cc3)o2)cc1C [3999A] | 0.087 (≈ 0.25 µM) | 0.68 (≈ 1.95 µM) | –
31 | O=C(Nc1nnc(-c2ccccc2O)o1)c1ccc(Oc2cccc(O)c2)cc1 [compound 6205] | 0.3 (≈ 0.77 µM) | 1.71 (≈ 4.39 µM) | –
32 | O=C(Nc1nnc(-c2ccc(F)cc2)o1)c1ccc(Cl)cc1 [KKL-35] | – | – | detectable material after dosing (preliminary PK) [1]: no detectable material; also recorded: undetectable
33 | Nc1ccc(C(=O)Nc2nnc(-c3ccc(F)cc3)o2)cc1 [compound 5804] | – | – | MIC (N. gonorrhoeae): 18.8 µg/mL (≈ 63 µM)
34 | O=C(Nc1nnc(C2CCCCC2)o1)c1ccc(OC2CCCCC2)nc1 [compound 4925] | 0.14 (≈ 0.378 µM) | – | –
35 | O=C(Nc1nnc(-c2cccc(O)c2)o1)c1ccc(Oc2cccc(O)c2)cc1 [compound 6236] | 4.86 (≈ 12.5 µM) | 19.4 (≈ 49.8 µM) | –
36 | COc1ccc(Oc2ccc(C(=O)Nc3nnc(-c4ccc(F)cc4)o3)cc2)cc1 [compound 4310] | 0.05 (≈ 0.123 µM) | 0.631 (≈ 1.56 µM) | –
37 | Cc1cccc(-c2nnc(NC(=O)c3ccc(Oc4ccccc4)nc3)o2)c1 [compound 4499] | 0.18 (≈ 0.483 µM) | 0.92 (≈ 2.47 µM) | –
